# Data from ChEMBL document CHEMBL4311969, “Polygala tenuifolia-Acori tatarinowii herbal pair as an inspiration for substituted cinnamic α-asaronol esters: Design, synthesis, anticonvulsant activity, and inhibition of lactate dehydrogenase study” (Eur J Med Chem, 2019).
# “And” between values parts separate entries of the source, which are not always exact repeats. Equal entries are not always repeated. The source made the active and inactive calls. No cut-off for these calls is given here.
# Tests used:
# Mus musculus [1] = assay: […] activity in ip dosed Kunming mouse assessed as reduction in formalin-induced paw licking administered 0.5 hrs before formalin stimulation; format: functional
# Mus musculus [2] = assay: Anticonvulsant activity in Kunming mouse assessed as reduction in ScPTZ-induced tonic seizure rate at 300 mg/kg, ip administered 0.5 hrs before ScPTZ stimulation relative to control; format: functional; design: scale not given: the % may be the effect or the level left
# Homo sapiens [3] = species: Homo sapiens; assay: Inhibition of human LDH5 at 0.5 mM using sodium pyruvate as substrate by UV-VIS spectrophotometry method relative to control
# Mus musculus [4] = assay: Anticonvulsant activity in ip dosed Kunming mouse assessed as MES-induced hind limb extension administered 0.5 hrs before MES stimulation; format: functional
# Mus musculus [5] = assay: Anticonvulsant activity in Kunming mouse assessed as reduction in ScPTZ-induced clonic seizure at 100 mg/kg, ip administered 0.5 hrs before ScPTZ stimulation relative to control; format: functional; design: scale not given: the % may be the effect or the level left
# Homo sapiens [6] = species: Homo sapiens; assay: Inhibition of human LDH1 at 0.5 mM using sodium pyruvate as substrate by UV-VIS spectrophotometry method relative to control
# Mus musculus [7] = assay: Anticonvulsant activity in Kunming mouse assessed as MES-induced hind limb extension at 100 mg/kg, ip administered 3 hrs before MES stimulation; format: functional, organism-based
# [8] = Protective index, ratio of TD50 for neurotoxicity against ip dosed Kunming mouse assessed as time remained in rod measured at 0.5 hrs by rotarod test to ED50 for […] activity in ip dosed Kunming mouse assessed as reduction in formalin-induced paw licking administered 0.5 hrs before formalin stimulation; format: toxicity, organism-based; details: in vivo, read-out: PI
# Mus musculus [9] = assay: Anticonvulsant activity in Kunming mouse assessed as MES-induced hind limb extension at 50 mg/kg, ip administered 0.5 and 2 hrs before MES stimulation relative to control; format: functional
# Mus musculus [10] = assay: Anticonvulsant activity in Kunming mouse assessed as reduction in ScPTZ-induced seizure at 300 mg/kg, ip administered 0.25 to 2 hrs before ScPTZ stimulation relative to control; format: functional; design: scale not given: the % may be the effect or the level left
# [11] = Neurotoxicity against Kunming mouse assessed as time remained in rod at 100 mg/kg, ip administered 0.5 to 2 hrs by rotarod test; format: toxicity, organism-based; details: in vivo
# Mus musculus [12] = assay: Anticonvulsant activity in Kunming mouse assessed as MES-induced hind limb extension at 100 mg/kg, ip administered 0. 5 to 2 hrs before MES stimulation; format: functional, organism-based
# Mus musculus [13] = assay: Anticonvulsant activity in Kunming mouse assessed as reduction in Sc3-MP-induced seizure ip dosed measured at 0.5 hrs before Sc3-MP stimulation; format: functional
# Mus musculus [14] = assay: Anticonvulsant activity in Kunming mouse assessed as reduction in Sc3-MP-induced tonic seizure rate at 300 mg/kg, ip administered 0.5 hrs before Sc3-MP stimulation relative to control; format: functional; design: scale not given: the % may be the effect or the level left
# Mus musculus [15] = assay: Anticonvulsant activity in Kunming mouse assessed as reduction in ScPTZ-induced seizure at 100 mg/kg, ip administered 0.25 to 2 hrs before ScPTZ stimulation relative to control; format: functional
# Mus musculus [16] = assay: Anticonvulsant activity in Kunming mouse assessed as reduction in Sc3-MP-induced clonic seizure rate at 300 mg/kg, ip administered 0.5 hrs before Sc3-MP stimulation relative to control; format: functional; design: scale not given: the % may be the effect or the level left
# Mus musculus [17] = assay: Anticonvulsant activity in Kunming mouse assessed as reduction in ScPTZ-induced clonic seizure at 300 mg/kg, ip administered 0.5 hrs before ScPTZ stimulation relative to control; format: functional; design: scale not given: the % may be the effect or the level left
# [18] = Protective index, ratio of TD50 for neurotoxicity against ip dosed Kunming mouse assessed as time remained in rod measured at 0.5 hrs by rotarod test to ED50 for anticonvulsant activity in ip dosed Kunming mouse assessed as reduction in ScPTZ-induced seizure administered 0.5 hrs before ScPTZ stimulation; format: toxicity, organism-based; details: in vivo, read-out: PI
# Mus musculus [19] = assay: Anticonvulsant activity in Kunming mouse assessed as reduction in ScPTZ-induced tonic seizure rate at 100 mg/kg, ip administered 0.5 hrs before ScPTZ stimulation relative to control; format: functional; design: scale not given: the % may be the effect or the level left
# [20] = Protective index, ratio of TD50 for neurotoxicity against ip dosed Kunming mouse assessed as time remained in rod measured at 0.5 hrs by rotarod test to ED50 for anticonvulsant activity in ip dosed Kunming mouse assessed as reduction in Sc3-MP-induced seizure administered 0.5 hrs before Sc3-MP stimulation; format: toxicity, organism-based; details: in vivo, read-out: PI
# [21] = Protective index, ratio of TD50 for neurotoxicity against ip dosed Kunming mouse assessed as time remained in rod measured at 0.5 hrs by rotarod test to ED50 for anticonvulsant activity in ip dosed Kunming mouse assessed as MES-induced hind limb extension administered 0.5 hrs; format: toxicity, organism-based; details: in vivo, read-out: PI
# Mus musculus [22] = assay: Anticonvulsant activity in ip dosed Kunming mouse assessed as reduction in ScPTZ-induced seizure administered 0.5 hrs before ScPTZ stimulation; format: functional
# Mus musculus [23] = assay: Anticonvulsant activity in Kunming mouse assessed as MES-induced hind limb extension at 100 mg/kg, ip administered 0. 5 to 4 hrs before MES stimulation relative to control; format: functional
# Mus musculus [24] = assay: Anticonvulsant activity in Kunming mouse assessed as reduction in ScPTZ-induced mortality rate at 300 mg/kg, ip administered 0.5 hrs before ScPTZ stimulation relative to control; format: functional; design: scale not given: the % may be the effect or the level left
# [25] = Neurotoxicity against ip dosed Kunming mouse assessed as time remained in rod measured at 0.5 hrs by rotarod test; format: toxicity, organism-based; details: in vivo
# [26] = Drug metabolism in Sprague-Dawley rat assessed as retention time by HPLC/MS analysis; format: ADME
# Mus musculus [27] = assay: Anticonvulsant activity in Kunming mouse assessed as reduction in ScPTZ-induced seizure at 100 mg/kg, ip administered 0.25 and 1 hrs before ScPTZ stimulation relative to control; format: functional; design: scale not given: the % may be the effect or the level left
# Mus musculus [28] = assay: Anticonvulsant activity in Kunming mouse assessed as reduction in Sc3-MP-induced seizure at 300 mg/kg, ip administered 0.25 and 1 hrs before Sc3-MP stimulation relative to control; format: functional, organism-based
# Mus musculus [29] = assay: Anticonvulsant activity in Kunming mouse assessed as MES-induced hind limb extension at 50 mg/kg, ip administered 0.5 to 4 hrs before MES stimulation relative to control; format: functional
# Mus musculus [30] = assay: Anticonvulsant activity in Kunming mouse assessed as reduction in Sc3-MP-induced seizure at 300 mg/kg, ip administered 0.5 hrs before Sc3-MP stimulation relative to control; format: functional; design: scale not given: the % may be the effect or the level left
# Mus musculus [31] = assay: Anticonvulsant activity in Kunming mouse assessed as reduction in Sc3-MP-induced mortality rate at 300 mg/kg, ip administered 0.5 hrs before Sc3-MP stimulation relative to control; format: functional; design: scale not given: the % may be the effect or the level left
SMILES,ED50 (Mus musculus [1]),Activity (Mus musculus [2]) [%],inhibition (Homo sapiens [3]),ED50 (Mus musculus [4]),Activity (Mus musculus [5]) [%],inhibition (Homo sapiens [6]),selectivity ratio at 0.5 h [8],Activity (Mus musculus [10]) [%],Activity [11],Activity (Mus musculus [12]),ED50 (Mus musculus [13]),Activity (Mus musculus [14]) [%],Activity (Mus musculus [15]),Activity (Mus musculus [16]) [%],Activity (Mus musculus [17]) [%],selectivity ratio at 0.5 h [18],Activity (Mus musculus [19]) [%],selectivity ratio at 0.5 h [21],TD50 at 0.5 h [25],Retention_time [26] [min],other results
COc1cc(OC)c(OC)cc1/C=C/COC(=O)/C=C/c1ccccc1C(F)(F)F,123 mg/kg and 291 µmol/kg,50,< 9%,85.7 mg/kg and 203 µmol/kg,100,< 5%,> 8.1,50,Non-Toxic,Active,> 300 mg/kg and > 710 µmol/kg,75,inactive,100,100,5,100,> 11.7,> 2370 µmol/kg and > 1000 mg/kg,,Activity (Mus musculus [7]): Active; Activity (Mus musculus [9]): inactive; selectivity ratio at 0.5 h [20]: 3.3; ED50 (Mus musculus [22]): > 200 mg/kg and > 474 µmol/kg; Activity (Mus musculus [23]): 25 - 100%; Activity (Mus musculus [24]): 0%
COc1cc(OC)c(OC)cc1/C=C/C(=O)O,,,,,,,,,,,,,,,,,,,,79.8,
COc1cc(OC)c(OC)cc1/C=C/COC(=O)/C=C/c1ccc(Cl)cc1,108 mg/kg and 278 µmol/kg,25,< 9%,137 µmol/kg and 53.4 mg/kg,100,< 5%,> 9.3,50,Non-Toxic,Active,> 200 mg/kg and > 514 µmol/kg,50,inactive,100,100,> 7.1,100,> 18.7,> 2570 µmol/kg and > 1000 mg/kg,,Activity (Mus musculus [27]): 75%; Activity (Mus musculus [28]): Active; Activity (Mus musculus [29]): 50%; Activity (Mus musculus [30]): 50%; selectivity ratio at 0.5 h [20]: > 6.2; ED50 (Mus musculus [22]): 142 mg/kg and 364 µmol/kg; Activity (Mus musculus [23]): 25 - 100%; Activity (Mus musculus [24]): 0%
COc1cc(OC)c(OC)c(OC)c1/C=C/C(=O)O,,,,,,,,,,,,,,,,,,,,81.4,
COc1cc(OC)c(OC)cc1/C=C\C(=O)O,,,,,,,,,,,,,,,,,,,,78.7,
COc1cc(OC)c(OC)c(OC)c1/C=C/C(=O)O[C@@H]1O[C@H](C(=O)O)[C@@H](O)[C@H](O)[C@H]1O,,,,,,,,,,,,,,,,,,,,55.2,
COc1cc(OC)c(OC)cc1/C=C/CO,,,,277 µmol/kg and 62 mg/kg,,,,,Non-Toxic,Active,,,,,,,,11.1,3070 µmol/kg and 689 mg/kg,67.5,
COc1cccc(/C=C/C(=O)OC/C=C/c2cc(OC)c(OC)cc2OC)c1,> 100 mg/kg and > 260 µmol/kg,50,inactive,72.9 mg/kg and 190 µmol/kg,100,inactive,> 8.9,50,Non-Toxic,Active,249 mg/kg and 647 µmol/kg,75,inactive,100,100,> 4.1,100,> 13.7,> 1000 mg/kg and > 2600 µmol/kg,,Activity (Mus musculus [9]): inactive; Activity (Mus musculus [31]): 25%; selectivity ratio at 0.5 h [20]: > 4; ED50 (Mus musculus [22]): 247 mg/kg and 643 µmol/kg; Activity (Mus musculus [23]): 25 - 100%; Activity (Mus musculus [24]): 0%
COc1cc(OC)c(OC)cc1/C=C/COC(=O)/C=C/c1ccc(Br)cc1,105 mg/kg and 243 µmol/kg,25,< 9%,61.8 mg/kg and 143 µmol/kg,100,< 5%,10.1,50,Non-Toxic,Active,> 300 mg/kg and > 692 µmol/kg,75,inactive,100,100,5.5,100,17.1,2440 µmol/kg and 1060 mg/kg,,Activity (Mus musculus [27]): 75%; Activity (Mus musculus [7]): Active; Activity (Mus musculus [29]): 50%; selectivity ratio at 0.5 h [20]: 5; ED50 (Mus musculus [22]): 446 µmol/kg and 193 mg/kg; Activity (Mus musculus [23]): 25 - 100%; Activity (Mus musculus [24]): 0%
COc1cc(OC)c(OC)cc1/C=C/C(=O)O[C@@H]1O[C@H](C(=O)O)[C@@H](O)[C@H](O)[C@H]1O,,,,,,,,,,,,,,,,,,,,50.1,
